Experimental data as given in US8785457B2 (Cellzome Limited, priority 2009, dated 2014).
Read-outs that look alike come from different tables or passages of the source.

Tests used:
[1] = target: T1, DNA-dependent protein kinase (DNA-PK) (Homo sapiens, UniProt P78527); assay: kinobeads assay, DNA-PK; format: binding; details: kinobeads assay
T1 construct: endogenous in cells; host or cells: Jurkat, clone E6-1 (ATCC TIB-152) cell lysate
Experimental: (§1) The compounds of the present invention as described were tested in the mTOR kinobeads assay as described below. Briefly, test compounds (at various concentrations) and the affinity matrix with the immobilized phenylmorpholin-chromen ligand (8-(4-aminomethyl-phenyl)-2-morpholin-4-yl-chromen-4-one) were added to cell lysate aliquots and allowed to bind to the proteins in the lysate sample. After the incubation time the beads with captured proteins were separated from the lysate. Bound proteins were then eluted and the presence of mTOR, PI3K delta (PI3 Kd) and DNA-dependent protein kinase (DNA-PK) was detected and quantified using a specific antibody in a dot blot procedure and the Odyssey infrared detection system. Kinobeads assays for PI3K (WO-A 2008/015013) and for kinase selectivity profiling (WO 2006/134056) have been previously described.
(§2) The kinobeads assay was performed as a competitive binding assay in which test compounds were added directly into a cell lysate. Test compounds (at various concentrations) and the affinity matrix (beads with immobilized phenylmorpholin-chromen ligand) were added to cell lysate aliquots and allowed to bind to the proteins contained in the lysate sample. After the incubation time the beads with captured proteins were separated from the lysate. Bound proteins were then eluted and the presence of kinases was detected and quantified using a multiplexed immunodetection format. Dose response curves for individual kinases were generated and IC50 values calculated.
(§3) The affinity matrix (beads with immobilized phenylmorpholin-chromen ligand) was washed two times with 15 ml of 1×DP buffer containing 0.2% NP40 (IGEPAL® CA-630, Sigma, #13021) and then resupended in 5.5 ml of 1×DP buffer containing 0.2% NP40 (10% beads slurry).
(§4) 5×DP buffer: 250 mM Tris-HCl pH 7.4, 25% Glycerol, 7.5 mM MgCl2, 750 mM NaCl, 5 mM Na3VO4, filter the 5×-lysis buffer through 0.22 μm filter and store in aliquots at −80° C. The 5×DP buffer is diluted to 1×DP buffer containing 1 mM DTT and 25 mM NaF.
(§5) Stock solutions of test compounds were prepared in DMSO. In a 96 well plate 30 μl solution of diluted test compounds at 5 mM in DMSO were prepared. Starting with this solution a 1:3 dilution series (9 steps) was prepared. For control experiments (no test compound) a buffer containing 2% DMSO was used. Compound CZC00018052 served as a positive control (PI-103; Calbiochem catalogue number 528100).
(§6) Jurkat cells (ATCC catalogue number TIB-152 Jurkat, clone E6-1) were grown in 1 liter Spinner flasks (Integra Biosciences, #182101) in suspension in RPMI 1640 medium (Invitrogen, #21875-034) supplemented with 10% Fetal Bovine Serum (Invitrogen) at a density between 0.15×10^6 and 1.2×10^6 cells/ml. Cells were harvested by centrifugation, washed once with 1×PBS buffer (Invitrogen, #14190-094) and cell pellets were frozen in liquid nitrogen and subsequently stored at −80° C.
(§7) Jurkat cells were homogenized in a Potter S homogenizer in lysis buffer: 50 mM Tris-HCl, 0.8% NP40, 5% glycerol, 150 mM NaCl, 1.5 mM MgCl2, 25 mM NaF, 1 mM sodium vanadate, 1 mM DTT, pH 7.5. One complete EDTA-free tablet (protease inhibitor cocktail, Roche Diagnostics, 1873580) per 25 ml buffer was added. The material was dounced 10 times using a mechanized POTTER S, transferred to 50 ml falcon tubes, incubated for 30 minutes on ice and spun down for 10 min at 20,000 g at 4° C. (10,000 rpm in Sorvall SLA600, precooled). The supernatant was transferred to an ultracentrifuge (UZ)-polycarbonate tube (Beckmann, 355654) and spun for 1 hour at 100.000 g at 4° C. (33.500 rpm in Ti50.2, precooled). The supernatant was transferred again to a fresh 50 ml falcon tube, the protein concentration was determined by a Bradford assay (BioRad) and samples containing 50 mg of protein per aliquot were prepared. The samples were immediately used for experiments or frozen in liquid nitrogen and stored frozen at −80° C. […]

mTOR = target: T2, mTOR (Homo sapiens, UniProt P42345); assay: mTOR kinobeads assay (competitive binding in Jurkat cell lysate, immunodetection); details: kinobeads assay
T2 construct: endogenous in cells; host or cells: Jurkat, clone E6-1 (ATCC TIB-152) cell lysate
Experimental: The compounds of the present invention as described were tested in the mTOR kinobeads assay as described below. […] After the incubation time the beads with captured proteins were separated from the lysate. Bound proteins were then eluted and the presence of mTOR, PI3K delta (PI3 Kd) and DNA-dependent protein kinase (DNA-PK) was detected and quantified using a specific antibody in a dot blot procedure and the Odyssey infrared detection system.
as §2, §4
as §5, with “used.” for “used. Compound CZC00018052 served as a positive control (PI-103; Calbiochem catalogue number 528100).”
Jurkat cells were homogenized in a Potter S homogenizer in lysis buffer: 50 mM Tris-HCl, 0.8% NP40, 5% glycerol, 150 mM NaCl, 1.5 mM MgCl2, 25 mM NaF, 1 mM sodium vanadate, 1 mM DTT, pH 7.5. […] The material was dounced 10 times using a mechanized POTTER S, transferred to 50 ml falcon tubes, incubated for 30 minutes on ice and spun down for 10 min at 20,000 g at 4° C. (10,000 rpm in Sorvall SLA600, precooled). […] (33.500 rpm in Ti50.2, precooled). The supernatant was transferred again to a fresh 50 ml falcon tube, the protein concentration was determined by a Bradford assay (BioRad) and samples containing 50 mg of protein per aliquot were prepared. The samples were immediately used for experiments or frozen in liquid nitrogen and stored frozen at −80° C.
Jurkat cell lysate (approximately 50 mg protein per plate) was thawed in a water bath at room temperature and then kept on ice. […] The diluted cell lysate was stored on ice.
Plates were sealed and incubated for two hours in a cold room on a Thermoxer with shaking (750 rpm). Afterwards the plate was washed twice with 230 μl washing buffer (1×DP 0.4% NP40). […] The eluate was frozen quickly at −80° C. and stored at −20° C.
The kinases in the eluates were detected and quantified by spotting on Nitrocellulose membranes and using a first antibody directed against the kinase of interest and a fluorescently labeled secondary antibody (anti-mouse or anti-rabbit IRDye™ antibodies from Rockland).
Afterwards the membrane was washed three times for 10 minutes with PBS buffer containing 0.1% Tween 20 at room temperature. […] Afterwards the membrane was washed three times for 10 minutes each with 1×PBS buffer containing 0.1% Tween 20 at room temperature. Then the membrane was rinsed once with PBS buffer to remove residual Tween 20. The membrane was kept in PBS buffer at 4° C. and then scanned with the Odyssey instrument. Fluorescence signals were recorded and analysed according to the instructions of the manufacturer.

PI3K delta (PI3 Kd) = target: T3, PI3K delta (PI3 Kd) (Homo sapiens, UniProt O00329); assay: kinobeads assay, PI3K delta; format: binding; details: kinobeads assay, read-out: Inhibition values (IC50) PI3Kd
T3 construct: endogenous in cells; host or cells: Jurkat, clone E6-1 (ATCC TIB-152) cell lysate
Experimental: as §1, §2, §3, §4, §5, §6, §7

[2] = Table 4, read-out: Inhibition values (IC50) DNA-PK
[3] = Table 6, read-out: Inhibition values (IC50) DNAPK
[4] = Table 4, read-out: Inhibition values (IC50) mTor
[5] = Table 6, read-out: Inhibition values (IC50) mTOR

T1 sequence (P78527 whole entry): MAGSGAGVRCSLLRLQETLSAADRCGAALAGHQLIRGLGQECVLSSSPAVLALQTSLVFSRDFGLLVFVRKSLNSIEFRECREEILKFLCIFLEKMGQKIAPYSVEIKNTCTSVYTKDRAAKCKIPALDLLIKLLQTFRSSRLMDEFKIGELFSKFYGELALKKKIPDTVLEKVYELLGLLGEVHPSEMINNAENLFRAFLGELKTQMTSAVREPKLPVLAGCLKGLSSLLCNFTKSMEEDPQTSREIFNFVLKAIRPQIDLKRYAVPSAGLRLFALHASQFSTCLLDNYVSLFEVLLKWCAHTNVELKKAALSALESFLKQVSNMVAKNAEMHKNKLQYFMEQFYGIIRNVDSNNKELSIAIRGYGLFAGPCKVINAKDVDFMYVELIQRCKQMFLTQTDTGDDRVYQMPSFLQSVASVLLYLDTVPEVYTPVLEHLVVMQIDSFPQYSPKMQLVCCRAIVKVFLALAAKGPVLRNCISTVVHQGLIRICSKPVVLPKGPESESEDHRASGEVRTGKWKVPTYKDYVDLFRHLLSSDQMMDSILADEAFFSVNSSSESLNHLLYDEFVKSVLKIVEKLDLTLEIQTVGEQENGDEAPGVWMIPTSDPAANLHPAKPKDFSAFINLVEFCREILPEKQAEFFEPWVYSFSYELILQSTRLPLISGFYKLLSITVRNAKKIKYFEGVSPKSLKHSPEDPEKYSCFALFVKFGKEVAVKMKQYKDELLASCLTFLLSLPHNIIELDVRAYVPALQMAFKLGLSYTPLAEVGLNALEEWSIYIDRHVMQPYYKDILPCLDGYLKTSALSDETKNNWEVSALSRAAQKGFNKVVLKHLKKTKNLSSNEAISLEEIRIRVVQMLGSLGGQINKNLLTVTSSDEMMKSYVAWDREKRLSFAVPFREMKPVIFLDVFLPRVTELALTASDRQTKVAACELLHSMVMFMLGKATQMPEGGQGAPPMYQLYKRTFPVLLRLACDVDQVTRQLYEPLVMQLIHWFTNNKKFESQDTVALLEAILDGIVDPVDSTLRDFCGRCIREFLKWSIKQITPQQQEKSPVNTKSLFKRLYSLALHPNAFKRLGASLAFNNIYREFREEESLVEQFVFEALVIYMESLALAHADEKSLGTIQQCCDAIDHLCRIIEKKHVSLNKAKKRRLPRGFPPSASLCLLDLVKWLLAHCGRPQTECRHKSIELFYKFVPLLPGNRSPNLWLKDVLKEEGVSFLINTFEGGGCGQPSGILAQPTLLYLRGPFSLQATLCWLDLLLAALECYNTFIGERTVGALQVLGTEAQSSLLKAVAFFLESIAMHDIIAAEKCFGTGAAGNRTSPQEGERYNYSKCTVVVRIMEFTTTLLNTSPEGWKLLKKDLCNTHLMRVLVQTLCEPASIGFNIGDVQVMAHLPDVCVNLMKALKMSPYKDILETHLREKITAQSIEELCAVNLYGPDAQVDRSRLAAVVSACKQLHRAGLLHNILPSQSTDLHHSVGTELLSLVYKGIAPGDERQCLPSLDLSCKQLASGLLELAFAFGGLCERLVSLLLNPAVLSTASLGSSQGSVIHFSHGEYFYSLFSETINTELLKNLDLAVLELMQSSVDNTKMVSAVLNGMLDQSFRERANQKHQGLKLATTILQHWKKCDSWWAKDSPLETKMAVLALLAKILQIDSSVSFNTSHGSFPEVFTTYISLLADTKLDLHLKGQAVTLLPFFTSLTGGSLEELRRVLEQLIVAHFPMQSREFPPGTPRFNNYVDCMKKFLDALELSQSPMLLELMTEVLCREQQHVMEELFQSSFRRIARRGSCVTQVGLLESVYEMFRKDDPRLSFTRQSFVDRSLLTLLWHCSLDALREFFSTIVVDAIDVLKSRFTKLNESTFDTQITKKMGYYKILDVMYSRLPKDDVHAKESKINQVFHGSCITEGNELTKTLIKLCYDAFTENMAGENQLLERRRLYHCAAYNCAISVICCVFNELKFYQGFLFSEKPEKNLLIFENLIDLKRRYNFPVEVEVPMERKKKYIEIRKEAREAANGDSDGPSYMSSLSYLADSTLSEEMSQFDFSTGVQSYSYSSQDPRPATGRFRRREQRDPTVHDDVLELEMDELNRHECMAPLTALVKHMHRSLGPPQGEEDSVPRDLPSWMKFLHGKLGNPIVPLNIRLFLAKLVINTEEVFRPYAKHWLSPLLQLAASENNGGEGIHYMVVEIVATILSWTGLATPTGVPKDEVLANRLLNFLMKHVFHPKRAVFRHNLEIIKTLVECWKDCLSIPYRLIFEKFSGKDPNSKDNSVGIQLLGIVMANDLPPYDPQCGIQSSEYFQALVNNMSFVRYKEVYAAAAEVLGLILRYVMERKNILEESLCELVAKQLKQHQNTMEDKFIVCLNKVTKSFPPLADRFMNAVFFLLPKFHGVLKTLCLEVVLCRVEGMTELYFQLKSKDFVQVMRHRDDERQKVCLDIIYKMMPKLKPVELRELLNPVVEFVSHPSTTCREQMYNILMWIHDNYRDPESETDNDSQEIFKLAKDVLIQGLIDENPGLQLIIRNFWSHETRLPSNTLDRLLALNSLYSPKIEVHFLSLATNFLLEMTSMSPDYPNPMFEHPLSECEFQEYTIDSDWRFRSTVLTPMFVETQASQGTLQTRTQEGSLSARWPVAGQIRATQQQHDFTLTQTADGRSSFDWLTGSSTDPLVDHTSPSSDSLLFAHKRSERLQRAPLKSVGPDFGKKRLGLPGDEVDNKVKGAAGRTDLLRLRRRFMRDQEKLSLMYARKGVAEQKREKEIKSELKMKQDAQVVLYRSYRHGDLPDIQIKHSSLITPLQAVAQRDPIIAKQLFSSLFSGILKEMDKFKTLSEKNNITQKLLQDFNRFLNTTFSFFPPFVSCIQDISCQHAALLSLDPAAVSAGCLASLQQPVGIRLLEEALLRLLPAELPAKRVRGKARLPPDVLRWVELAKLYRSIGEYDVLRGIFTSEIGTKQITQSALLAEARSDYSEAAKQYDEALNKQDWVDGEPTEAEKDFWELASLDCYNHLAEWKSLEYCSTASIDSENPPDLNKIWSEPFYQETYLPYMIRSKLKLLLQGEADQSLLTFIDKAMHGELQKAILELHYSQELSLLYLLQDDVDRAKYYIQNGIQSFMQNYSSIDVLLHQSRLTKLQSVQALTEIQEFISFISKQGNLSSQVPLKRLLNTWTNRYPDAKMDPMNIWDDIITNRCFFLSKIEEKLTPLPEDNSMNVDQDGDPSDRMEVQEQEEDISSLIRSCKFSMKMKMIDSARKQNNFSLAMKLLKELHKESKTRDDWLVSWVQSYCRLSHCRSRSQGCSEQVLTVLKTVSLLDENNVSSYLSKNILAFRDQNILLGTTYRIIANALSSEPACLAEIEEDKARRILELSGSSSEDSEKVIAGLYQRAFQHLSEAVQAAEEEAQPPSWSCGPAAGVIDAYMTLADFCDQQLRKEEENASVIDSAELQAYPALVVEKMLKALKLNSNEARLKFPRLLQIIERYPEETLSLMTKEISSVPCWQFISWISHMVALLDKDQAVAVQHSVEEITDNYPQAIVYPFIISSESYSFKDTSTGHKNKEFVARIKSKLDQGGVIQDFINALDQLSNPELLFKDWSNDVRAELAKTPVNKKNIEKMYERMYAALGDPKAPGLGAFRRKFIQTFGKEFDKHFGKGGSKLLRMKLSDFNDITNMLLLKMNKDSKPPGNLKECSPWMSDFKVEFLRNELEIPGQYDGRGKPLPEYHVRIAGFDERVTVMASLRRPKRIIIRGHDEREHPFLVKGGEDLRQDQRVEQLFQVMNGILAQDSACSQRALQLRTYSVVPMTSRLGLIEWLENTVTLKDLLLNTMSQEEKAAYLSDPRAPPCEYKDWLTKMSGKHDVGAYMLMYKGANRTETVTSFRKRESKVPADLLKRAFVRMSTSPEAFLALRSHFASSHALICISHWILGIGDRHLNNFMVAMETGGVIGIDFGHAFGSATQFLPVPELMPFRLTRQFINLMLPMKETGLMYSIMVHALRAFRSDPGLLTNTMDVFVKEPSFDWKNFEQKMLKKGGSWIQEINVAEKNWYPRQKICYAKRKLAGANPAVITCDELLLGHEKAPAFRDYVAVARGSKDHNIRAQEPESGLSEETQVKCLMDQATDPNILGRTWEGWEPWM

`COCCCNC(=O)Nc1ccc(-c2nc3c(c(N4CCOC[C@@H]4C)n2)CN(C)C3)cc1` [Example 53, (S)-1-(3-methoxypropyl)-3-(4-(6-methyl-4-(3-methylmorpholino)-6,7-dihydro-5H-pyrrolo[3,4-d]pyrimidin-2-yl)phenyl)urea] gave an IC50 [1, 2] of over 10 µM, an IC50 [1, 3] of over 10 µM and an IC50 (mTOR; [4]) of 0.1 to 1 µM. For the same molecule, the IC50 (mTOR; [5]) was 0.1 to 1 µM.

`CCNC(=O)Nc1ccc(-c2nc3c(c(N4CCOC[C@@H]4C)n2)CCN(Cc2ccc(F)cc2)C3)cc1` [Example 31, (S)-1-ethyl-3-(4-(7-(4-fluorobenzyl)-4-(3-methylmorpholino)-5,6,7,8-tetrahydropyrido[3,4-d]pyrimidin-2-yl)phenyl)urea] was tested, and the IC50 [1, 2] was over 10 µM, the IC50 [1, 3] was over 10 µM and the IC50 (PI3K delta (PI3 Kd); Table 4) was over 10 µM. It also gave an IC50 (PI3K delta (PI3 Kd); Table 6) of over 10 µM, an IC50 (mTOR; [4]) of 0.1 to 1 µM and an IC50 (mTOR; [5]) of 1 to 10 µM.

Work on `CCNC(=O)Nc1ccc(-c2nc3c(c(N4CCOCC4)n2)CNC3)cc1` [Example 14, 1-ethyl-3-(4-(4-morpholino-6,7-dihydro-5H-pyrrolo[3,4-d]pyrimidin-2-yl)phenyl)urea] yielded an IC50 [1, 2] of over 10 µM, an IC50 [1, 3] of over 10 µM and an IC50 (PI3K delta (PI3 Kd); Table 4) of 1 to 10 µM. For the same molecule, the IC50 (PI3K delta (PI3 Kd); Table 6) was 1 to 10 µM.

`CNC(=O)Nc1ccc(-c2nc3c(c(N4CCOC[C@@H]4C)n2)CNCC3)cc1` [Example 10, (S)-1-methyl-3-(4-(4-(3-methylmorpholino)-5,6,7,8-tetrahydropyrido[4,3-d]pyrimidin-2-yl)phenyl)urea] gave an IC50 [1, 2] of over 10 µM, an IC50 [1, 3] of over 10 µM and an IC50 (PI3K delta (PI3 Kd); Table 4) of over 10 µM. It also gave an IC50 (PI3K delta (PI3 Kd); Table 6) of over 10 µM, an IC50 (mTOR; [4]) of 0.1 to 1 µM and an IC50 (mTOR; [5]) of 0.1 to 1 µM.

Molecule `CCNC(=O)Nc1ccc(-c2nc3c(c(N4CCOC[C@@H]4C)n2)CNC3)cc1` [Example 7, (S)-1-ethyl-3-(4-(4-(3-methylmorpholino)-6,7-dihydro-5H-pyrrolo[3,4-d]pyrimidin-2-yl)phenyl)urea] has an IC50 [1, 2] of over 10 µM, an IC50 [1, 3] of over 10 µM and an IC50 (PI3K delta (PI3 Kd); Table 4) of over 10 µM. The IC50 (PI3K delta (PI3 Kd); Table 6) was over 10 µM, the IC50 (mTOR; [4]) was under 0.1 µM and the IC50 (mTOR; [5]) was under 0.1 µM.

With `CNC(=O)Nc1ccc(-c2nc3c(c(N4CCOC[C@@H]4C)n2)CNC3)cc1` [Example 4, (S)-1-methyl-3-(4-(4-(3-methylmorpholino)-6,7-dihydro-5H-pyrrolo[3,4-d]pyrimidin-2-yl)phenyl)urea] the IC50 [1, 2] was over 10 µM, the IC50 [1, 3] was over 10 µM and the IC50 (PI3K delta (PI3 Kd); Table 4) was 1 to 10 µM. The IC50 (PI3K delta (PI3 Kd); Table 6) was 1 to 10 µM, the IC50 (mTOR; [4]) was under 0.1 µM and the IC50 (mTOR; [5]) was under 0.1 µM.

With `C[C@H]1COCCN1c1nc(-c2ccc(NC(N)=O)cc2)nc2c1CN(C=O)C2` [Example 6, (S)-1-(4-(6-formyl-4-(3-methylmorpholino)-6,7-dihydro-5H-pyrrolo[3,4-d]pyrimidin-2-yl)phenyl)urea] the IC50 [1, 2] was over 10 µM, the IC50 [1, 3] was over 10 µM and the IC50 (PI3K delta (PI3 Kd); Table 4) was 1 to 10 µM. The IC50 (PI3K delta (PI3 Kd); Table 6) was 1 to 10 µM, the IC50 (mTOR; [4]) was 0.1 to 1 µM and the IC50 (mTOR; [5]) was 0.1 to 1 µM.

Molecule `C[C@@H]1COCCN1c1nc(-c2ccc(NC(=O)NC3CC3)cc2)nc2c1CNC2` [Example 9, (R)-1-cyclopropyl-3-(4-(4-(3-methylmorpholino)-6,7-dihydro-5H-pyrrolo[3,4-d]pyrimidin-2-yl)phenyl)urea] has an IC50 [1, 2] of over 10 µM, an IC50 [1, 3] of over 10 µM and an IC50 (PI3K delta (PI3 Kd); Table 4) of over 10 µM. It also gave an IC50 (PI3K delta (PI3 Kd); Table 6) of over 10 µM, an IC50 (mTOR; [4]) of under 0.1 µM and an IC50 (mTOR; [5]) of under 0.1 µM.

In the case of `C[C@H]1COCCN1c1nc(-c2ccc(NC(=O)NC3CC3)cc2)nc2c1CNC2` [Example 3, (S)-1-cyclopropyl-3-(4-(4-(3-methylmorpholino)-6,7-dihydro-5H-pyrrolo[3,4-d]pyrimidin-2-yl)phenyl)urea], the IC50 [1, 2] is reported as over 10 µM, the IC50 [1, 3] is reported as over 10 µM and the IC50 (PI3K delta (PI3 Kd); Table 4) is reported as over 10 µM. The IC50 (PI3K delta (PI3 Kd); Table 6) was over 10 µM, the IC50 (mTOR; [4]) was under 0.1 µM and the IC50 (mTOR; [5]) was under 0.1 µM.

Work on `C[C@H]1COCCN1c1nc(-c2ccc(NC(=O)NCCCO)cc2)nc2c1CN(C)C2` [Example 51, (S)-1-(3-hydroxypropyl)-3-(4-(6-methyl-4-(3-methylmorpholino)-6,7-dihydro-5H-pyrrolo[3,4-d]pyrimidin-2-yl)phenyl)urea] yielded an IC50 [1, 2] of over 10 µM, an IC50 [1, 3] of over 10 µM and an IC50 (mTOR; [4]) of under 0.1 µM. The IC50 (mTOR; [5]) was under 0.1 µM.
